Measured values reported in patent US9156762B2, “4,4-bis[(ethenyloxy)methyl]cyclohexene and method for producing same” (Nippon Carbide Industries Co., Inc., priority 2011, dated 2015).

Assay: skin irritability (stated in words, no method described)
Conditions: the vinyl ether itself

For `C=COCC1(COC=C)CC=CCC1` [4,4-bis[(ethenyloxy)methyl]cyclohexene], the skin irritability was “low”.
